Measurements from article PMC5659129, “Determinants of the Inhibition of DprE1 and CYP2C9 by Antitubercular Thiophenes” (Angewandte Chemie (International Ed. in English), 2017).
Values after ≈ are worked out from the molar mass of the structure shown. Where two headings read alike, the source gives them in different places.

Assays:
CYP2C9 [1] = molecular target: T1, CYP2C9 (Homo sapiens, UniProt P11712); conditions: for IC50 ratio (CYP2C9 over DprE1): selectivity
CYP2C9 [2] = molecular target: T1, CYP2C9; test: in vitro; conditions: microsomes, pH 7.4
Mtb WT = test: microbe, parasite or virus in culture; type: cell-based, Mycobacterium tuberculosis; conditions: for MIC: Mycobacterium tuberculosis, 168 h
M. smegmatis DprE1 WT = M. smegmatis DprE1 WT (Mycolicibacterium smegmatis, UniProt A0R607); test: biochemical
Chain of M. smegmatis DprE1 WT (A0R607 whole entry): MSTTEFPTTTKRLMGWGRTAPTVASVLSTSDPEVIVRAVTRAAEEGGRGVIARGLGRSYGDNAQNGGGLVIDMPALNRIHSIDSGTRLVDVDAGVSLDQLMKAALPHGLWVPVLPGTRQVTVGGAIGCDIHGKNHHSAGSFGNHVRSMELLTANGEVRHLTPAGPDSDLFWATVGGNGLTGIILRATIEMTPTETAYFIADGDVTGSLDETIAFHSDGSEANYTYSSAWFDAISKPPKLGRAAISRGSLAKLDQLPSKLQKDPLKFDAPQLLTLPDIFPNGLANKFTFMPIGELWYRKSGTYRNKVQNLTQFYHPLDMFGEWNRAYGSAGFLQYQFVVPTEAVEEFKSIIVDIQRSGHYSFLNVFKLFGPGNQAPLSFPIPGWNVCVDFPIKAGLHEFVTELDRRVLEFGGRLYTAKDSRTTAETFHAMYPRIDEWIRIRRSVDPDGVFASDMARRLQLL

CYP2C9 [3] = molecular target: T1, CYP2C9; test: biochemical
Mtb Erdman [4] = type: in vivo, BALB/c mouse; conditions: 3 weeks, acute phase
Mtb Erdman [5] = type: in vivo, BALB/c mouse; conditions: 200 mg kg−1, oral, 4 weeks, chronic phase
CYP1A2 = CYP1A2 (Homo sapiens, UniProt P05177); conditions: microsomes
Chain of CYP1A2 (P05177 whole entry): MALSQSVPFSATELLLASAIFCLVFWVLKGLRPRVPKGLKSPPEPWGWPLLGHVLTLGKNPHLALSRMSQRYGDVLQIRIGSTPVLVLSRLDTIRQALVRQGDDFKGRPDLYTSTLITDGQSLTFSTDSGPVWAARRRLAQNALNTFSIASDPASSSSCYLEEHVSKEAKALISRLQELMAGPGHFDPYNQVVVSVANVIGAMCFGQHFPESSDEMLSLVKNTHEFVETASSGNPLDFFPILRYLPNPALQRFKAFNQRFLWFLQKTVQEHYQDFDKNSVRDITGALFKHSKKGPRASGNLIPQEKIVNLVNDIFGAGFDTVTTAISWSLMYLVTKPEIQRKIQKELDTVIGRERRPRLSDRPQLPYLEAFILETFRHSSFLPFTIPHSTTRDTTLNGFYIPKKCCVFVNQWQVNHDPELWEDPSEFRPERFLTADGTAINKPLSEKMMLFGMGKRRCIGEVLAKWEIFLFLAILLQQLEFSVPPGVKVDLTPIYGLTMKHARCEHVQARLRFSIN

CYP3A4 = CYP3A4 (Homo sapiens, UniProt P08684); conditions: microsomes
Chain of CYP3A4 (P08684 whole entry): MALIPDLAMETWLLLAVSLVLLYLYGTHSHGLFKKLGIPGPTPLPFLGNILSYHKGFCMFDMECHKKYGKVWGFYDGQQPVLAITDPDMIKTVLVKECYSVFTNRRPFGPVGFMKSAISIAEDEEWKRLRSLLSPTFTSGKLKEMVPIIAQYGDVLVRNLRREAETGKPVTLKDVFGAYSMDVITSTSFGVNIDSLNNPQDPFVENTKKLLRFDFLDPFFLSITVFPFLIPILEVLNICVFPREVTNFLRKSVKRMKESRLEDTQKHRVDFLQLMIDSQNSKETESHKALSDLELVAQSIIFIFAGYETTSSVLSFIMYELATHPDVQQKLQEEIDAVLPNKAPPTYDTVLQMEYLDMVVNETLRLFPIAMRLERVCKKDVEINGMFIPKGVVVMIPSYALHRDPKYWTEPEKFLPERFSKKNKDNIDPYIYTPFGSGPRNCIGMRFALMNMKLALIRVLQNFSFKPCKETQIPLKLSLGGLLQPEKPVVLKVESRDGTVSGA

CYP2D6 = CYP2D6 (Homo sapiens, UniProt P10635); conditions: microsomes
Chain of CYP2D6 (P10635 whole entry): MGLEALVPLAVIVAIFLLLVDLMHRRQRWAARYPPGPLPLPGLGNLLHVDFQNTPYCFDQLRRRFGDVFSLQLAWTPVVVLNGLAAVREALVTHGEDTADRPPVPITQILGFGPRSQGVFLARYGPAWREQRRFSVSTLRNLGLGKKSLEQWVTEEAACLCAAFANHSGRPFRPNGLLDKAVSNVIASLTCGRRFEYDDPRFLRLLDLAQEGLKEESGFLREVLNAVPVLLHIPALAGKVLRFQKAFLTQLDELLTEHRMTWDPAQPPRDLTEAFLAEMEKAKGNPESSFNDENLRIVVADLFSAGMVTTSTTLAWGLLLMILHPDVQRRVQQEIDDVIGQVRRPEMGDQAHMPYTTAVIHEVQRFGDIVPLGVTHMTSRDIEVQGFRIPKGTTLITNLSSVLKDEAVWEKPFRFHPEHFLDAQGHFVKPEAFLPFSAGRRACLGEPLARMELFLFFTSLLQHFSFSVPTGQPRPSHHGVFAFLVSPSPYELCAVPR

CYP2C19 = CYP2C19 (Homo sapiens, UniProt P33261); conditions: microsomes
Chain of CYP2C19 (P33261 whole entry): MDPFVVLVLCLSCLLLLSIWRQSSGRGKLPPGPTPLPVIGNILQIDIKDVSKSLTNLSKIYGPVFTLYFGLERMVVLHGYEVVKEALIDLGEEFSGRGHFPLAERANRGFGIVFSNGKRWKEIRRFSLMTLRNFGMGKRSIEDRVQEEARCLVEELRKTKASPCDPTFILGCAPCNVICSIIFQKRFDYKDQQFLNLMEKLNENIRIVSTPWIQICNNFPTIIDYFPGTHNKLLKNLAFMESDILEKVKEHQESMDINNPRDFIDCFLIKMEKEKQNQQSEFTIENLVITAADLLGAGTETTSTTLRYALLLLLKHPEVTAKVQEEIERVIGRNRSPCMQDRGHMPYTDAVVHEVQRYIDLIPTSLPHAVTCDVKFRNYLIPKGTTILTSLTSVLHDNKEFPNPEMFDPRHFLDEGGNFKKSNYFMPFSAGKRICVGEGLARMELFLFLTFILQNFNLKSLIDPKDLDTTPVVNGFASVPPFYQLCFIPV

hERG potassium channel = hERG potassium channel (Homo sapiens, UniProt Q12809); test: cell-based
Chain of hERG potassium channel (Q12809 whole entry): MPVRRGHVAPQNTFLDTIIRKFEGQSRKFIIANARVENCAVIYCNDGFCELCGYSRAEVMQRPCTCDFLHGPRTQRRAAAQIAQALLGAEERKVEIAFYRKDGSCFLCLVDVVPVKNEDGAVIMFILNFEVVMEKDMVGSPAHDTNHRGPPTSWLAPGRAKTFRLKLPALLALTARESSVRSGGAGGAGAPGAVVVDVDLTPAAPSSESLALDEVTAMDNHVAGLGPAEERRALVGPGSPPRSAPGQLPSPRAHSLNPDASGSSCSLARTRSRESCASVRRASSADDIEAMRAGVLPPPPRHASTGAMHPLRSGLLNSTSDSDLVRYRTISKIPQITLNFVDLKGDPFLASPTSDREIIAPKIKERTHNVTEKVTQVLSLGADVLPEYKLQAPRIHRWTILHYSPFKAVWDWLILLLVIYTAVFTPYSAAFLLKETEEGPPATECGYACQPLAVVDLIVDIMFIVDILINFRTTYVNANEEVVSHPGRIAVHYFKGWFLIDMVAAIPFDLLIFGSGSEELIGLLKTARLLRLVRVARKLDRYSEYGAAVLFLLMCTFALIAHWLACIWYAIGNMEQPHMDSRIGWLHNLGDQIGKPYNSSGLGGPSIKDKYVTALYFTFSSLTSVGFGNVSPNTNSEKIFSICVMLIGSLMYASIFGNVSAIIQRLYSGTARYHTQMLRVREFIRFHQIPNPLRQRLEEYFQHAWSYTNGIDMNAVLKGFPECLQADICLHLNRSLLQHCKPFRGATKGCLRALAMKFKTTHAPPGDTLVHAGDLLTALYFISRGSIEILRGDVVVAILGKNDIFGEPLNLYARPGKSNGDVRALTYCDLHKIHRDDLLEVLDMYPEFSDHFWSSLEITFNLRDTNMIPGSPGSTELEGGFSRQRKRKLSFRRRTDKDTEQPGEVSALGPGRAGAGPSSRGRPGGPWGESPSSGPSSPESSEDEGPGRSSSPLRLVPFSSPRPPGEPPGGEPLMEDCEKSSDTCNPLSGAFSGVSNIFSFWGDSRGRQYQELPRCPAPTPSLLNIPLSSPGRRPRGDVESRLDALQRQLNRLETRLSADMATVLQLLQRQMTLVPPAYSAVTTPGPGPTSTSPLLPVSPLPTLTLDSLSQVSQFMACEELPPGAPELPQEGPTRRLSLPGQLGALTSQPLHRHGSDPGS

[6] = Mini-Ames mutagenicity test
HepG2 cell line = test: In vitro cytotoxicity assay, HepG2; conditions: up to a concentration of 100 μM
Vero cell line = test: In vitro cytotoxicity assay (MTT), Vero; conditions: up to a concentration of 100 μM
Method: In vitro cytotoxicity assay. Vero epithelial cells (from African green monkey; ATCC
CCL-81) were cultured in Dulbecco’s modified Eagle’s medium (DMEM) supplemented
with 10% fetal bovine serum (FBS) and maintained in a humidified incubator (37°C in
5% CO2). Cells were dislodged with a cell scraper, collected by centrifugation,
resuspended in fresh medium at 10^6 cells/ml, dispensed into 96-well microtiter plates
(100 ml/well), and incubated for 18 h at 37°C. Two-fold serial dilutions of test
compounds in DMEM with FBS were subsequently added, and cells were incubated for
another 72 h. In triplicate studies, the cytopathic effects of compounds were evaluated
colorimetrically by using the 3-(4, 5- dimethyl-2-thiazolyl)-2, 5-diphenyl-2H-tetrazolium
bromide (MTT) cell proliferation assay (ATCC).

[7] = MABA, 7 days, 90% reduction in fluorescence

T1 sequence (P11712 whole entry): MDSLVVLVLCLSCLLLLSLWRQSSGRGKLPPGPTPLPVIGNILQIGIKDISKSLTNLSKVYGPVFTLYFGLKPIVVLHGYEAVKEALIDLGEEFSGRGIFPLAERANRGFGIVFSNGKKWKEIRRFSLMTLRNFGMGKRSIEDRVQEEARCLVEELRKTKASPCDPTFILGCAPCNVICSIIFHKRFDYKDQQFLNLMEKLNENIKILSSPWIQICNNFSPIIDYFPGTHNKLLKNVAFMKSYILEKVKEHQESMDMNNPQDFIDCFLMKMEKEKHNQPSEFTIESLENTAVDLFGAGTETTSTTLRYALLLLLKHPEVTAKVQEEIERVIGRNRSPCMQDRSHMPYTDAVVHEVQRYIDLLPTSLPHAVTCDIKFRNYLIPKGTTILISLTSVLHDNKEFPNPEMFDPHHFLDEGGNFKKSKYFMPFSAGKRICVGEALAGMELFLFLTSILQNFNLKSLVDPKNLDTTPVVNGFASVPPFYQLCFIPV

CCOC(=O)NC(=O)c1ccsc1NC(=O)c1ccn2cnnc2c1 [TCA582]
IC50 ratio (CYP2C9 over DprE1) (CYP2C9 [1]): 33 | IC50 (CYP2C9 [2]): 1830 nM

O=C(Nc1sccc1C(=O)Nc1ncccn1)c1nc2cnccc2s1 [TCA020]
MIC WT (Mtb WT; [7]): 2.5 ± 0.48 µM (≈ 0.956 µg/mL) | MIC (Mtb WT; [7]): 2.5 µM (≈ 0.956 µg/mL)

CCOC(=O)NC(=O)c1ccsc1NC(=O)c1nc2ccccc2s1 [TCA1]
MIC (Mtb WT; [7]): 0.23 ± 0.012 µM (≈ 0.0863 µg/mL)

Cc1ccnc(NC(=O)c2ccsc2NC(=O)c2nc3cnccc3s2)n1 [TCA787]
IC50 (M. smegmatis DprE1 WT; M. smegmatis DprE1, Table 1, read-out: IC50 DprE1 WT): 96 ± 38 nM | MIC (Mtb WT; [7]): 0.44 ± 0.12 µM (≈ 0.174 µg/mL)

Cc1ccnc(NC(=O)c2ccsc2NC(=O)c2ccn3cnnc3c2)n1 [TCA711]
IC50 (M. smegmatis DprE1 WT; Figure 4D, read-out: DprE1 IC50): 30 nM | IC50 ratio (CYP2C9 over DprE1) (CYP2C9 [1]): 1515 | IC50 (CYP2C9 [3]): > 50000 nM

CCOC(=O)NC(=O)c1cc(F)sc1NC(=O)c1nc2ccccc2s1 [TCA481]
more potent than TCA1 based on MIC (Mtb WT; MIC relative to TCA1): 5 fold | MIC (Mtb WT; [7]): 0.046 ± 0.0025 µM (≈ 0.0181 µg/mL)

CCOC(=O)NC(=O)c1ccsc1NC(=O)c1nc2cnccc2s1 [TCA007]
MIC (Mtb WT; [7]): 0.089 ± 0.0066 µM (≈ 0.0335 µg/mL) | reduction of bacterial load in lung (Mtb Erdman [4]; 50 mg kg−1, oral): 1.7 log10 CFU | reduction of bacterial load in lung (Mtb Erdman [4]; 100 mg kg−1, oral): 2.3 log10 CFU | reduction of CFU in mouse lungs (Mtb Erdman [5]): > 1.7 log10 CFU | inhibitory effect for CYP2C9 (CYP2C9 [1]; microsomes): strong inhibitory effect | inhibition of CYP1A2 (CYP1A2): no inhibition | inhibition of CYP3A4 (CYP3A4): no inhibition | inhibition of CYP2D6 (CYP2D6): no inhibition | inhibition of CYP2C19 (CYP2C19): no inhibition | IC50 (hERG potassium channel): > 30000 nM | genetic toxicity [6]: no genetic toxicity | cytotoxicity against HepG2 (HepG2 cell line): not cytotoxic | cytotoxicity against Vero (Vero cell line): not cytotoxic
